Laboratory results as given in patent US5604245A, “Use of 4-amino-1-(2-pyridyl)piperidines for the preparation of a medicament for the treatment of conditions deriving from disorders of the serotoninergic systems mediated by 5-HT3 receptors” (priority 1991, dated 1997).
Read-outs that look alike come from different tables or passages of the source.

How the values were obtained:
[1] = test system: 5-HT3 receptors (mice striatum); test: turning test in mice; type: in vivo; conditions: for turning behaviour after injection into the mice striatum: intrastriatal injection, inhibited by 5-HT3 receptor antagonists
Text: CM 57227 was also studied in the "turning" test carried out as described by P. Worms et al. in Life Sciences, 1986, 39, 2199-2208.

5-HT3 receptors [2] = biological target: T1, 5-HT3 receptors (Rattus norvegicus, UniProt P35563); test: biochemical; type: binding; parameters: the cortical tissue from 4 animals was homogenized in 20 volumes of HEPES; from tissue; host or cells: cerebral cortical membranes of male rats (about 200 g)
T1 sequence (P35563 24-483): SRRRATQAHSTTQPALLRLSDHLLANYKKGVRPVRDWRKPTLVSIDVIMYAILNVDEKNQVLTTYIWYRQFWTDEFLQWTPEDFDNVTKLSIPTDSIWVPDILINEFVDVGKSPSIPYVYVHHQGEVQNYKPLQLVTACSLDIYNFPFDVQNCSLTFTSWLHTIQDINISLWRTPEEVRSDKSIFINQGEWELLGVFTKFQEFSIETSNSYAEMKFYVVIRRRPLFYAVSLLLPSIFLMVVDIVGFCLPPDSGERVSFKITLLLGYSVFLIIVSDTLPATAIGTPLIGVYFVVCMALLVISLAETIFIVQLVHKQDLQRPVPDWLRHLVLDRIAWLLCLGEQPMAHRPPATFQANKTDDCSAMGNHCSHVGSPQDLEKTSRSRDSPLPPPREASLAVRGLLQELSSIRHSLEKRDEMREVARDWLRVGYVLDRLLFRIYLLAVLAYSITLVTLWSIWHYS
Description: The potency of the compounds of formula (I') in displacing [^3 H]
For the preparation of cerebral membranes, male rats weighing about 200 g and sacrificed by decapitation were employed. […] In summary, the cortical tissue from 4 animals was homogenized in 20 volumes of HEPES and kept at 4° C. until used in the binding assays.

5-HT3 receptors [3] = biological target: T1, 5-HT3 receptors; test: Bezold-Jarish test in the anaesthetised rat (reduction of heart rate); type: in vivo; parameters: evokes in the anaesthetised rat, a short-lived reduction of heart rate (Bezold-Jarish effect); from tissue; host or cells: whole animal: urethane-anaesthetised Sprague-Dawley rat; conditions: for ED50: rat, read-out: ID50 i.v. (dose which inhibits by 50% the heart rate); for inhibition of the Bezold-Jarish effect evoked by compounds of formula (I'): anaesthetised rat
Description: Selective 5-HT3 agonist activity of the compounds of formula (I') was confirmed in vivo in the Bezold-Jarish test. In this test, intravenous administration of the compounds of formula (I') evokes in the anaesthetised rat, a short-lived reduction of heart rate (Bezold-Jarish effect).
More particularly, the Bezold-Jarish effect evoked by the compounds of formula (I') was evaluated using Sprague-Dawley rats weighing from 200 to 300 g, anaesthetised with urethane 1.25 g/kg i.p. The blood pressure was recorded from the carotid artery and heart rate was evaluated, as pulse frequency, by means of a cardiotachometer. A catheter was inserted into the jugular vein for the administration of the substances.

5-HT1A receptors = biological target: T2, 5-HT1A receptors (Homo sapiens, UniProt P08908); test: displacement of labelled specific ligand from 5-HT1A receptors; type: binding; conditions: no affinity
T2 sequence (P08908 1-422): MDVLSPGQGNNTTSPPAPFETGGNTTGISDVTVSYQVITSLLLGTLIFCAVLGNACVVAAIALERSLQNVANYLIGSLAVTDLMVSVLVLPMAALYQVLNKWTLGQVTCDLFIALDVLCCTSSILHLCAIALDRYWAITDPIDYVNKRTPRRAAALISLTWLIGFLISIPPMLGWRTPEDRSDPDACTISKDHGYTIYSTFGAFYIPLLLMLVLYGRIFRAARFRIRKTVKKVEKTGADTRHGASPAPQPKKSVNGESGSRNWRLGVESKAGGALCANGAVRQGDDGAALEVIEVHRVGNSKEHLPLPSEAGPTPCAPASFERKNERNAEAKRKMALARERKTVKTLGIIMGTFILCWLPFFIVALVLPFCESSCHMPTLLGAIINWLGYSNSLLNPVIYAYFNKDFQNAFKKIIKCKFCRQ
Text: (§1) This affinity for 5-HT3 receptors is also selective.

5-HT1B receptors = 5-HT1B receptors (Rattus norvegicus, UniProt P28564); test: displacement of labelled specific ligand from 5-HT1B receptors; type: binding; conditions: no affinity
Chain of 5-HT1B receptors (P28564 whole entry): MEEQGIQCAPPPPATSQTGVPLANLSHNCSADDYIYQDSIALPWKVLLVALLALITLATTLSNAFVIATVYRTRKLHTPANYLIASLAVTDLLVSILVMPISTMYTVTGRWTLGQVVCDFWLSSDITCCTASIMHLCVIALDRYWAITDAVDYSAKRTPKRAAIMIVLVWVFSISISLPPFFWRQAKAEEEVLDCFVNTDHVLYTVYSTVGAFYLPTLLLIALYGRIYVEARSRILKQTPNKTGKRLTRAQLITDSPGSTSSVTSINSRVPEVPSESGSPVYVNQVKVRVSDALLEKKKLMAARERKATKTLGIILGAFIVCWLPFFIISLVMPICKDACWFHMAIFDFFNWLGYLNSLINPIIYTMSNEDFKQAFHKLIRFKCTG
Text: as §1

serotonin uptake sites = serotonin uptake sites (Homo sapiens, UniProt P31645); test: [3H] paroxetine displacement test; type: binding
Chain of serotonin uptake sites (P31645 whole entry): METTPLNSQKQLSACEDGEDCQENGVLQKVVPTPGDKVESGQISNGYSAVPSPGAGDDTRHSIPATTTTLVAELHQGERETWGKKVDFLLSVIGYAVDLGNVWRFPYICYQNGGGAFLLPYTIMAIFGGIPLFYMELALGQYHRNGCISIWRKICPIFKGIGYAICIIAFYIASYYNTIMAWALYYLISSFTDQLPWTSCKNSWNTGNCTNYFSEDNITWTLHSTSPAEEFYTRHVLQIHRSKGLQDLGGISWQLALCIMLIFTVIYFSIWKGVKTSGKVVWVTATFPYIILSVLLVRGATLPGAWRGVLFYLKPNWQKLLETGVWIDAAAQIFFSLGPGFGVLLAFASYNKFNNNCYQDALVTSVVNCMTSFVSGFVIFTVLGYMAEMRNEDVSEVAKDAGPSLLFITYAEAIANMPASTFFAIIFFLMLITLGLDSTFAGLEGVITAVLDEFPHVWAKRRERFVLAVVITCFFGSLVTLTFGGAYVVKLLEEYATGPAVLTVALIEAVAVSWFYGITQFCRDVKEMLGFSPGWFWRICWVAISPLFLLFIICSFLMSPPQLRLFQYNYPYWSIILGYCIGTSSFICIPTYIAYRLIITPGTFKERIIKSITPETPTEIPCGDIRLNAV
Text: as §1

adrenergic sites α2 = test: displacement of labelled specific ligand from adrenergic sites α2; type: binding; conditions: no affinity
Text: as §1

adrenergic sites α1 = test: displacement of labelled specific ligand from adrenergic sites α1; type: binding; conditions: no affinity
Text: as §1

adrenergic sites β1 = adrenergic sites β1 (Homo sapiens, UniProt P08588); test: displacement of labelled specific ligand from adrenergic sites β1; type: binding; conditions: no affinity
Chain of adrenergic sites β1 (P08588 whole entry): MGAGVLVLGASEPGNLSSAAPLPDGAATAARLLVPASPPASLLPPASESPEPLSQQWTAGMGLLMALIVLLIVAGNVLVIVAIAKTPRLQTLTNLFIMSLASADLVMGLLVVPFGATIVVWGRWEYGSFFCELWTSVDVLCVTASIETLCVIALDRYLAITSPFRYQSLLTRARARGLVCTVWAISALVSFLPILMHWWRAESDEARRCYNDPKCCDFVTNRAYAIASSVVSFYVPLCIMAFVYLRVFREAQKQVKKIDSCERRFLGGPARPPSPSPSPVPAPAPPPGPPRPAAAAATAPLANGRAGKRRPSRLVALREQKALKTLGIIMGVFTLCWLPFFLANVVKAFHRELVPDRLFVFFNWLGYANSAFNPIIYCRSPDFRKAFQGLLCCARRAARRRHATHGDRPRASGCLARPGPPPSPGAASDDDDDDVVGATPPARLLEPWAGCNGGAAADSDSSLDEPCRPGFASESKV
Text: as §1

dopaminergic sites D1 = dopaminergic sites D1 (Homo sapiens, UniProt P21728); test: displacement of labelled specific ligand from dopaminergic sites D1; type: binding; conditions: no affinity
Chain of dopaminergic sites D1 (P21728 whole entry): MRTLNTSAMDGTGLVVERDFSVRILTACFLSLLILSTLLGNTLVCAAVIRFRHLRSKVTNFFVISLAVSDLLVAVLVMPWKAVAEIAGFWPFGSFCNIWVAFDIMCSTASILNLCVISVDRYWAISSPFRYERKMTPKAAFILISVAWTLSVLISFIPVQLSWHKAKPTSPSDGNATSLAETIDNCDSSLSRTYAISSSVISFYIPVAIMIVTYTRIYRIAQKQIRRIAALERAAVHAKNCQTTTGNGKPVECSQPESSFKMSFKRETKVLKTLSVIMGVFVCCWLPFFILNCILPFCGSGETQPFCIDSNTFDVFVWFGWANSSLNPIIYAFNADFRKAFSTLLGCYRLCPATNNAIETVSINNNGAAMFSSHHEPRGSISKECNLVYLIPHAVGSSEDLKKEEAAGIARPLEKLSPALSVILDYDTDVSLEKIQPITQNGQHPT
Text: as §1

dopaminergic sites D2 = dopaminergic sites D2 (Homo sapiens, UniProt P14416); test: displacement of labelled specific ligand from dopaminergic sites D2; type: binding; conditions: no affinity
Chain of dopaminergic sites D2 (P14416 whole entry): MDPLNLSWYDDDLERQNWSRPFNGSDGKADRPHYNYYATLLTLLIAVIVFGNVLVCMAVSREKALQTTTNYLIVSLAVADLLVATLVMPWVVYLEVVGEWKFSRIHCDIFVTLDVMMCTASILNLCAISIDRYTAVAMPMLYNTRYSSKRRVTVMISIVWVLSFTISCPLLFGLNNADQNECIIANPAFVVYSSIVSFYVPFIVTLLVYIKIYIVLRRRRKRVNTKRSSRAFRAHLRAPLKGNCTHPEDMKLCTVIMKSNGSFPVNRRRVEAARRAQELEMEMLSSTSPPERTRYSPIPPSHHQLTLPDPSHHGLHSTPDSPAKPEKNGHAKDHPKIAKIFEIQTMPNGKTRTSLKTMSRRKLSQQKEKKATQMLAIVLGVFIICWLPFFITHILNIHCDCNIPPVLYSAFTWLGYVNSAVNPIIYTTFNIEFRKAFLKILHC
Text: as §1

central 5-HT3 receptors = biological target: T3, central 5-HT3 receptors (Mus musculus, UniProt P23979); test: ex vivo inhibition of [3H] BRL 43694 specific binding to cortical cerebral membranes in mice
T3 construct: from tissue; host or cells: cortical cerebral membranes of mice dosed intraperitoneally
T3 sequence (P23979 24-489): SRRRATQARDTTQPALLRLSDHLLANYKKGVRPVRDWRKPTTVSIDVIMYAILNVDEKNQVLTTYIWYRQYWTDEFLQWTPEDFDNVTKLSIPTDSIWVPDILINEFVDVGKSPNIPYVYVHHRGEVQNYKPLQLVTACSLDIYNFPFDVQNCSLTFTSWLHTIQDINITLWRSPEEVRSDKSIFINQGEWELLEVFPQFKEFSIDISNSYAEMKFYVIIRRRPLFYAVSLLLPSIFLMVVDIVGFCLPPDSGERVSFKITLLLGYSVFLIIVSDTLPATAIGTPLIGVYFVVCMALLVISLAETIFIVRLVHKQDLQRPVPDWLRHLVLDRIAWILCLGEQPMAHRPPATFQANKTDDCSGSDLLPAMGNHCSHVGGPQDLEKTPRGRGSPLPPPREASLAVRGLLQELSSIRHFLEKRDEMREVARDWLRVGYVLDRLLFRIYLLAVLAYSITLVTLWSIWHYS

5-HT3 receptors [4] = test: fecal excretion in rats (intestinal prokinetic activity); type: in vivo
Description: Said activity was investigated by means of a test aimed at evaluating fecal excretion in rats. […] The compounds of formula (I') to be tested were administered subcutaneously. The treatment schedule provided for 8 animals in each group. At the time of drug treatment, the rectal lumen was manually emptied from any residual feces and the animals were then placed again into their cages. 90 Minutes after the treatment the fecal pellets were collected, their number was determined and their wet weight measured. They were then put in the oven and dried for 10 hours at 40° C. for the determination of the dry weight. The parameter used to evaluate the activity of the test compounds was the dry weight (in grams) of the feces excreted during the 90 minutes following the subcutaneous administration of the test compound.

SMILES: Cc1[nH]c2ccc(O)cc2c1CCN [2-methylserotonin, reference compound]
- turning behaviour after injection into the mice striatum [1]: evokes a turning behaviour
- Ki (5-HT3 receptors [2]): 1.11 µM
- ED50 (5-HT3 receptors [3]; anaesthetised Sprague-Dawley rats, intravenous): 0.005 mg/kg

SMILES: Cl.NC1CCN(c2cccc(Cl)n2)CC1 [CM 57227, 4-amino-1-(6-chloro-2-pyridyl)piperidine hydrochloride]
- Ki (5-HT1A receptors): > 10 µM
- Ki (5-HT1B receptors): > 10 µM
- Ki (serotonin uptake sites): > 10 µM
- Ki (adrenergic sites α2): > 10 µM
- Ki (adrenergic sites α1): > 10 µM
- Ki (adrenergic sites β1): > 10 µM
- Ki (dopaminergic sites D1): > 10 µM
- Ki (dopaminergic sites D2): > 10 µM
- ID50 p.o., extrapolated to zero dilution (central 5-HT3 receptors; mice, oral administration, compared with ID50 i.p. of 1 mg/kg): of the same magnitude order
- ED50 (central 5-HT3 receptors; mouse, ip, 0.5 h, read-out: ID50 i.p., extrapolated to zero dilution (dose inhibiting by 50% [3H] BRL 43694 binding), mice, 30 minutes after i.p. administration): 1 mg/kg
- ID50 for [3H] BRL 43694 binding compared with ID50 for [3H] paroxetine (serotonin uptake sites) (central 5-HT3 receptors; same experimental conditions): markedly lower
- ED50 ([1]; Mus musculus, ip, mice, test compound i.p., ondansetron 1 mg/kg i.p., intrastriatal 2-methylserotonin, read-out: ED50, blockade of ondansetron antagonism of 2-methylserotonin-induced turning behaviour): 0.25 mg/kg
- turning behaviour after injection into the mice striatum [1]: evokes a turning behaviour
- dry weight of feces excreted during 90 minutes (5-HT3 receptors [4]; 2.5 mg/kg s.c.): about 1.3 g
- Ki (5-HT3 receptors [2]; 0.5 nM [3H] BRL 43694, 30 minutes at 25° C., rat cortical membranes, read-out: Ki, displacement of [3H] BRL 43694): 0.193 µM
- ED50 (5-HT3 receptors [3]; iv): 0.00829 mg/kg

SMILES: CN1C2CCC1CC(OC(=O)c1c[nH]c3ccccc13)C2 (stereo not shown) [ICS 205-930]
- antagonism of the fecal excretion stimulating activity of compounds of formula (I') (5-HT3 receptors [4]): antagonised
- inhibition of the Bezold-Jarish effect evoked by compounds of formula (I') (5-HT3 receptors [3]): inhibited

SMILES: CC[C@@H](CO)NC(=O)[C@@H]1C=C2c3cccc4c3c(cn4C)C[C@H]2N(C)C1 [methysergide]
- inhibition of the Bezold-Jarish effect evoked by compounds of formula (I') (5-HT3 receptors [3]): not inhibited

SMILES: NCCc1c[nH]c2ccc(O)cc12 [serotonin]
- ED50 (5-HT3 receptors [3]; iv): 0.0136 mg/kg

SMILES: COc1cc(N)c(Cl)cc1C(=O)NC1CN2CCC1CC2 (stereo not shown) [zacopride]
- antagonism of the fecal excretion stimulating activity of compounds of formula (I') (5-HT3 receptors [4]): antagonised
- inhibition of the Bezold-Jarish effect evoked by compounds of formula (I') (5-HT3 receptors [3]): inhibited
